Measured values reported in paper PMC9669179 (Epilepsia, 2022).
Where two headings read alike, the source gives them in different places.

What was measured:
[1] = Plasma pharmacokinetics in mice
[2] = Brain pharmacokinetics in rats; settings: rats, after CBZ i.p.
[3] = Brain pharmacokinetics in mice; settings: mouse
[4] = Plasma pharmacokinetics in rats; settings: rats
[5] = CF-1, mouse, in vivo
in vivo [6] = settings: Sprague Dawley, rat, ip
in vivo [7] = settings: CF-1, mouse, ip; for half-life: Plasma t1/2
rats = settings: rat, minimum motor impairment test, i.p.; cited from earlier work
[8] = CF-1, mouse, in vivo; remark: listed apart in the source
mice = settings: mouse, cited from earlier work
adult male CF-1 mice [9] = assay: 6 Hz 44 mA seizure test in mice; assay type: in vivo, mouse
[10] = Sprague Dawley, rat, in vivo
in vivo [11] = settings: Sprague Dawley, rat, ip, Brain t1/2
[12] = system: male adult Sprague-Dawley rats; assay: 6 Hz 80 V seizure test in rats; assay type: in vivo, rat; settings: for Seizure protection (in words): rats, any time-point
[13] = Sprague Dawley, rat, in vivo; remark: listed apart in the source
adult male CF-1 mice [14] = settings: mouse, 6 Hz 44 mA, i.p.; cited from earlier work
[15] = system: adult Sprague-Dawley rats; assay: Maximal electroshock; assay type: in vivo, rat; settings: MES; for Efficacy in rats (number seizure protected /number tested): low dose i.p. (CLB 17, CBZ 3, VPA 165 mg/kg); for Seizure protection (in words): rats
[16] = system: adult Sprague-Dawley rats; settings: rat, MES, i.p.; cited from earlier work
in vivo [17] = settings: CF-1, mouse, ip
[18] = mouse, metabolite after high parent dose i.p.: CLB 17, CBZ 40 mg/kg
[19] = mouse, metabolite after low parent dose i.p.: CLB 7, CBZ 7 mg/kg
[20] = metabolite after high parent dose i.p.: CLB 17, CBZ 40 mg/kg
[21] = metabolite after low parent dose i.p.: CLB 7, CBZ 7 mg/kg
[22] = high dose i.p. (CLB 17, VPA 570, LEV 500 mg/kg), time test 0.25 h
[23] = high dose i.p. (CLB 17, VPA 570, LEV 500 mg/kg), time test 0.5 h
[24] = high dose i.p. (CLB 17, VPA 570, LEV 500 mg/kg), time test 1 h
[25] = high dose i.p. (CLB 17, VPA 570, LEV 500 mg/kg), time test 2 h
[26] = high dose i.p. (CLB 17, VPA 570, LEV 500 mg/kg), time test 4 h
[27] = high dose i.p. (CLB 17, VPA 570, LEV 500 mg/kg), time test 8 h
[28] = low dose i.p. (CLB 7, VPA 260, LEV 20 mg/kg), time test 0.25 h
[29] = low dose i.p. (CLB 7, VPA 260, LEV 20 mg/kg), time test 0.5 h
[30] = low dose i.p. (CLB 7, VPA 260, LEV 20 mg/kg), time test 1 h
[31] = low dose i.p. (CLB 7, VPA 260, LEV 20 mg/kg), time test 2 h
[32] = low dose i.p. (CLB 7, VPA 260, LEV 20 mg/kg), time test 4 h
[33] = low dose i.p. (CLB 7, VPA 260, LEV 20 mg/kg), time test 8 h
[34] = mice, low dose i.p. (VPA 260, LEV 20 mg/kg)

NC(=O)N1c2ccccc2C2OC2c2ccccc21 (stereo not shown) [CBZE, carbamazepine-10,11-epoxide]
Plasma half-life of CBZE relative to CBZ ([1]; mice, high dose CBZ 40 mg/kg i.p., fold longer than CBZ): ~ 3 fold
Plasma t1/2 of metabolite [1, 18]: 239 min
Plasma t1/2 of metabolite [1, 19]: 72 min
Brain half-life of metabolite [2]: approximately 4 hrs
Brain/Plasma AUC ratio of active metabolite [3, 20]: 1.00
Brain/Plasma AUC ratio of active metabolite [3, 21]: 1.20
CBZE plasma exposures as % of CBZ ([4]; after CBZ i.p.): approximately 70%
Plasma half-life of metabolite ([4]; after CBZ i.p.): approximately 4 hrs

CC[C@@H](C(N)=O)N1CCCC1=O [LEV, levetiracetam]
Brain Dose Prop (AUC) [5]: 1.03
half-life (in vivo [6]; Plasma t1/2): 370 min
Tmax (in vivo [7]): 15 min
half-life (in vivo [7]): 103 min
TD50 - high dose (rats): 800 mg/kg
Plasma Dose Prop (AUC) [8]: 1.27
Plasma Dose Prop (Cmax) [8]: 1.00
Plasma t1/2 ([8]; ip): 123 min
TD50 - high dose (mice; rotarod test, i.p.): 500 mg/kg
Efficacy in mice (number seizure protected/number tested) (adult male CF-1 mice [9]; [22]): 1/4
Efficacy in mice (number seizure protected/number tested) (adult male CF-1 mice [9]; [23]): 1/4
Efficacy in mice (number seizure protected/number tested) (adult male CF-1 mice [9]; [24]): 1/4
Efficacy in mice (number seizure protected/number tested) (adult male CF-1 mice [9]; [25]): 1/4
Efficacy in mice (number seizure protected/number tested) (adult male CF-1 mice [9]; [26]): 1/4
Efficacy in mice (number seizure protected/number tested) (adult male CF-1 mice [9]; [27]): 0/4
Efficacy in mice (number seizure protected/number tested) (adult male CF-1 mice [9]; [28]): 0/4
Efficacy in mice (number seizure protected/number tested) (adult male CF-1 mice [9]; [29]): 0/4
Efficacy in mice (number seizure protected/number tested) (adult male CF-1 mice [9]; [30]): 0/4
Efficacy in mice (number seizure protected/number tested) (adult male CF-1 mice [9]; [31]): 0/4
Efficacy in mice (number seizure protected/number tested) (adult male CF-1 mice [9]; [32]): 0/4
Efficacy in mice (number seizure protected/number tested) (adult male CF-1 mice [9]; [33]): 0/4
Protection against seizures (adult male CF-1 mice [9]; mice, high-dose LEV (500 mg/kg i.p.), within 4 hrs post-dose): 25%
Seizure protection (in words) (adult male CF-1 mice [9]; [34]): did not protect
Plasma Dose Prop (AUC) [10]: 0.55
Plasma Dose Prop (Cmax) [10]: 0.500
Plasma t1/2 ([10]; ip): 191 min
half-life (in vivo [11]): 265 min
Efficacy in rats (number seizure protected /number tested) ([12]; high dose i.p. (LEV 800 mg/kg), time test 0.25 h): 0/4
Efficacy in rats (number seizure protected /number tested) ([12]; high dose i.p. (LEV 800 mg/kg), time test 0.5 h): 0/4
Efficacy in rats (number seizure protected /number tested) ([12]; high dose i.p. (LEV 800 mg/kg), time test 1 h): 0/4
Efficacy in rats (number seizure protected /number tested) ([12]; high dose i.p. (LEV 800 mg/kg), time test 2 h): 0/4
Efficacy in rats (number seizure protected /number tested) ([12]; high dose i.p. (LEV 800 mg/kg), time test 4 h): 0/4
Efficacy in rats (number seizure protected /number tested) ([12]; high dose i.p. (LEV 800 mg/kg), time test 8 h): 0/4
Efficacy in rats (number seizure protected /number tested) ([12]; low dose i.p. (LEV 14 mg/kg), time test 0.25 h): 0/4
Efficacy in rats (number seizure protected /number tested) ([12]; low dose i.p. (LEV 14 mg/kg), time test 0.5 h): 0/4
Efficacy in rats (number seizure protected /number tested) ([12]; low dose i.p. (LEV 14 mg/kg), time test 1 h): 0/4
Efficacy in rats (number seizure protected /number tested) ([12]; low dose i.p. (LEV 14 mg/kg), time test 2 h): 0/4
Efficacy in rats (number seizure protected /number tested) ([12]; low dose i.p. (LEV 14 mg/kg), time test 4 h): 0/4
Efficacy in rats (number seizure protected /number tested) ([12]; low dose i.p. (LEV 14 mg/kg), time test 8 h): 0/4
Seizure protection (in words) ([12]; high dose LEV 800 mg/kg i.p.): failed to protect
Seizure protection (in words) ([12]; low dose LEV 14 mg/kg i.p.): failed to protect
Brain Dose Prop (AUC) [13]: 0.56
Brain t1/2 ([13]; ip): 212 min

O=C1CC(=O)N(c2ccccc2)c2cc(Cl)ccc2N1 [NCLB, N-desmethyl clobazam]
NCLB concentrations relative to CLB ([1]; mice, after CLB i.p., fold greater than CLB): approximately 10 fold
Plasma AUC of NCLB relative to CLB ([1]; mouse, after CLB i.p., fold greater than CLB): approximately 10 fold
Plasma t1/2 of metabolite [1, 18]: 266 min
Plasma t1/2 of metabolite [1, 19]: 385 min
Brain/Plasma AUC ratio of active metabolite [3, 20]: 1.64
Brain/Plasma AUC ratio of active metabolite [3, 21]: 1.88
NCLB concentrations relative to CLB ([4]; plasma and brain, after CLB i.p., fold less than CLB): ~ 20 fold

CCCC(CCC)C(=O)O [VPA, sodium valproate]
Brain Dose Prop (AUC) [5]: 2.17
Brain t1/2 ([5]; ip): 76.8 min
Tmax (in vivo [6]; Plasma Tmax): 15 min
Tmax (in vivo [7]): 30 min
Tmax (in vivo [7]; Plasma Tmax): 15 min
half-life (in vivo [7]): 43.8 min
ED50 - low dose (adult male CF-1 mice [14]): 260 mg/kg
Plasma Dose Prop (Cmax) [8]: 0.863
Efficacy in rats (number seizure protected /number tested) ([15]; time test 0.25 h): 3/4
Efficacy in rats (number seizure protected /number tested) ([15]; time test 0.5 h): 3/4
Efficacy in rats (number seizure protected /number tested) ([15]; time test 1 h): 1/4
Efficacy in rats (number seizure protected /number tested) ([15]; time test 2 h): 0/4
Efficacy in rats (number seizure protected /number tested) ([15]; time test 4 h): 0/4
Efficacy in rats (number seizure protected /number tested) ([15]; time test 8 h): 0/4
Seizure protection (in words) ([15]; high dose i.p. (CLB 37, VPA 315 mg/kg)): full to moderate seizure protection
Seizure protection (in words) ([15]; low dose i.p. (CLB 17, VPA 165 mg/kg)): moderate protection
TD50 - high dose (mice; in vivo, ip): 570 mg/kg
Efficacy in mice (number seizure protected/number tested) (adult male CF-1 mice [9]; [22]): 4/4
Efficacy in mice (number seizure protected/number tested) (adult male CF-1 mice [9]; [23]): 4/4
Efficacy in mice (number seizure protected/number tested) (adult male CF-1 mice [9]; [24]): 4/4
Efficacy in mice (number seizure protected/number tested) (adult male CF-1 mice [9]; [25]): 4/4
Efficacy in mice (number seizure protected/number tested) (adult male CF-1 mice [9]; [26]): 0/4
Efficacy in mice (number seizure protected/number tested) (adult male CF-1 mice [9]; [27]): 0/4
Efficacy in mice (number seizure protected/number tested) (adult male CF-1 mice [9]; [28]): 4/4
Efficacy in mice (number seizure protected/number tested) (adult male CF-1 mice [9]; [29]): 3/4
Efficacy in mice (number seizure protected/number tested) (adult male CF-1 mice [9]; [30]): 0/4
Efficacy in mice (number seizure protected/number tested) (adult male CF-1 mice [9]; [31]): 0/4
Efficacy in mice (number seizure protected/number tested) (adult male CF-1 mice [9]; [32]): 0/4
Efficacy in mice (number seizure protected/number tested) (adult male CF-1 mice [9]; [33]): 0/4
Brain concentration needed for complete seizure protection (adult male CF-1 mice [9]; mice, comparison of the two VPA dose levels): above 100 ng/mg
Seizure protection (in words) (adult male CF-1 mice [9]; mice, high dose i.p. (VPA 570 mg/kg), sustained only within 2 hrs): maximal antiseizure efficacy
Seizure protection (in words) (adult male CF-1 mice [9]; [34]): seizure protection was observed within the first hour
Plasma Dose Prop (Cmax) [10]: 0.902
Time to total drug elimination (>97% drug eliminated) ([10]; ip): less than 4.5 hrs
ED50 - low dose [16]: 165 mg/kg
Brain Dose Prop (AUC) [13]: 1.84
Tmax (in vivo [17]): 30 min
Tmax (in vivo [17]; Brain Tmax): 15 min
half-life (in vivo [17]; Brain t1/2): 55.6 min
